Measurements published in patent publication US20230041228A1, “Small Molecule Inhibition of Micro-RNA-210 Reprograms an Oncogenic Hypoxic Circuit” (University of Florida Research Foundation, Incorporated, priority 2017, published 2023).
“Also recorded” adds a separate entry of the source. Blank lines part the entries; values can stand above or below the compound they belong to.

Assays:
[1] = tested on: miR-210 hairpin precursor (pre-miR-210), Dicer processing; assay: In vitro Dicer protection assay; assay type: biochemical; conditions: recombinant human Dicer, gel quantification
Protocol: The miR-210 precursor was 5′-end labeled with [γ-^32P] ATP and T4 polynucleotide kinase as previously described^4. The RNA was then folded in 1× Reaction Buffer (Genlantis) by heating at 60° C. for 5 min and slowly cooling to room temperature, where it was then supplemented with 1 mM ATP and 2.5 mM MgCl2. Targapremir-210 was added to the reaction mixture and the samples were allowed to incubate at room temperature for 15 min. Recombinant human Dicer enzyme (Genlantis) was added to a final concentration of 0.01 U/μL and the samples were incubated for an additional 30 min at 37 ° C. Reactions were stopped by adding in 2× Gel Loading Buffer (8 M urea, 50 mM EDTA, 0.05% (w/v) bromophenol blue, 0.05% (w/v) xylene cyanol). To generate sequencing markers, pre-miR-210 was digested with RNase T1 (0.125 U/μL) in T1 Buffer (25 mM sodium citrate, pH 5, 7 M urea, and 1 mM EDTA) for 20 min at room temperature. An RNA hydrolysis ladder was prepared by incubating RNA in 1× RNA Hydrolysis Buffer (50 mM NaHCO3, 1 mM EDTA, pH 9.4) at 95° C. for 5 min. Cleavage products were resolved on a denaturing 15% polyacrylamide gel, which was imaged using a Molecular Dynamics Typhoon phosphorimager and quantified with Bio-Rad's QuantityOne software.

pre-miR-210 RNA = assay: In solution fluorescent binding assay; conditions: compared with binding to the Dicer site motif
Protocol: Dissociation constants for the binding of pre-miR-210 RNA to Hoechst 33342 and Targapremir-210 were determined using an in solution, fluorescent binding assay. RNA was folded in 1× Binding Buffer (8 mM Na2HPO4, 190 mM NaCl, 1 mM EDTA, and 40 μg/mL BSA) at 60° C. for 5 min and then allowed to cool to room temperature for 10 min. Hoechst 33342 or Targapremir-210 was added to a final concentration of 500 nM. Next, 1:2 serial dilutions were performed in 1× Binding Buffer supplemented with 500 nM of Hoechst 33342 or Targapremir-210. Solutions were incubated for 30 min and then transferred to Corning non-binding surface 96-well black plates. Fluorescence intensity was then measured on a Bio-Tek FLX-800 plate reader. Change in fluorescence intensity was fit as a function of RNA concentration with equation 1: […]
where I and I0 are the observed fluorescence intensity in the presence and absence of RNA, respectively, Δε is the difference between the fluorescence intensity in the absence and in the presence of infinite RNA concentration, [FL]0 and [RNA]0 are the concentrations of compound (Hoechst 33342 or Targapremir-210) and RNA, respectively, and Kt is the dissociation constant.

miR-210 [2] = assay: RT-qPCR of miR-210 (mature, pri-, pre-) in MDA-MB-231 cells under hypoxic conditions; assay type: cell-based
Protocol: (§1) MDA-MB-231 cells were cultured in RPMI 1640 medium supplemented with 10% FBS (Sigma), 1× Glutagro (Corning), and 1× Pen/Strep (MP Biomedicals, LLC) (growth medium). Cells cultured in normoxia were maintained at 37° C. in ambient atmosphere (˜21% O2) with 5% CO2. Cells cultured in hypoxia were maintained at 37° C., <1% O2 in a nitrogen filled hypoxic chamber (Billups-Rothenberg, Inc.), and 5% CO2.
(§2) Approximately 200-600 ng of RNA was used in subsequent reverse transcription reactions using a miScript II RT Kit (Qiagen) or a qScript cDNA Synthesis Kit (Quanta Biosciences) per the manufacturers' recommended protocols. Primers for RT-qPCR were purchased from Integrated DNA Technologies (IDT) or Eurofins (Table S1) and used without further purification. RT-qPCR samples were prepared using Power SYBR Green PCR Master Mix (Applied Biosystems) and completed by using a 7900HT Fast Real Time PCR System (Applied Biosystems). Expression levels of RNA were normalized to U6 small nuclear RNA, GAPDH mRNA, or 18S rRNA.

HIF-1α mRNA [3] = assay: RT-qPCR of HIF-1α mRNA in hypoxic MDA-MB-231 cells; assay type: cell-based; conditions: 200 nM
Protocol: as §1, §2

GPD1L = assay: RT-qPCR of GPD1L in hypoxic MDA-MB-231 cells; assay type: cell-based; conditions: 200 nM
Protocol: as §1, §2

MDA-MB-231 cells = assay: Apoptosis by Annexin V/propidium iodide staining and flow cytometry; assay type: cell-based; conditions: 200 nM
Protocol: as §1

[4] = tested on: panel of hypoxia-associated miRNAs (n=28); assay: Cellular selectivity, RT-qPCR of hypoxia-associated miRNAs; assay type: cell-based; conditions: 200 nM, MDA-MB-231 cells
Protocol: as §1, §2

[5] = tested on: miRNAs with predicted compound binding sites; assay: Cellular selectivity, RT-qPCR of RNA isoforms; assay type: cell-based; conditions: hypoxic MDA-MB-231 cells
Protocol: as §1, §2

[6] = tested on: miR-210 hairpin precursor; assay: Cellular Chem-CLIP and C-Chem-CLIP, miR-210; assay type: cell-based; conditions: read-out: concentration required to inhibit ˜50% of the reaction of Targapremir-210-CA-Biotin with the miR-210 hairpin precursor (C-Chem-CLIP); MDA-MB-231 cells, 200 nM probe
Protocol: (§3) MDA-MB-231 cells were grown in growth medium as monolayers in 60 mm dishes to ˜60% confluency. […] Cells were immediately placed under hypoxic conditions for 48 h, and total RNA was extracted using a Quick-RNA MiniPrep (Zymo Research) per the manufacturer's protocol. Approximately 10 μg of total RNA was incubated with 100 μL of streptavidin-agarose beads in 1× PBS for 1 h at room temperature with gentle shaking. The solution was removed and the beads were washed 8 times with 300 μL of in 1× PBS. Bound RNA was released from the beads by heating in 1× Elution Buffer (95% formamide, 10 mM EDTA, pH 8.2) at 60° C. for 20 min. The pulled-down RNA was purified using a Quick-RNA MiniPrep Kit (Zymo Research) and then used for subsequent RT and qPCR reactions as described above.
(§4) The relative fold-change in the amount of an RNA before and after pull-down was calculated by the ΔΔCt method as shown in equation 1: […]
(§5) Relative Fold−Change:2^−(ΔC^t ^before pull-down−Δc^t ^after pull-down) (1)
(§6) where the “ΔCt before pull-down” is the difference between the Ct values for the RNA of interest and a housekeeping gene (U6 small nuclear RNA, GAPDH mRNA, or 18S rRNA) in total RNA isolated from cells and “ΔCtafter pull-down” is the difference between the Ct values the RNA of interest and the same housekeeping gene after pull-down.

[7] = tested on: hypoxia-associated miRNAs; assay: Cellular Chem-CLIP and C-Chem-CLIP, hypoxia-associated miRNAs; assay type: cell-based
Protocol: as §3, §4, §5, §6

[8] = tested on: 15 miRNAs that have an RNA isoform that binds Targapremir-210; assay: Cellular Chem-CLIP, RNA isoforms; assay type: cell-based; conditions: MDA-MB-231 cells; miR-497, miR-1273c, miR-3174, miR-107
Protocol: as §3, §4, §5, §6

[9] = tested on: miR-96 and miR-210 levels; assay: Effect on miR-96 and miR-210 levels under hypoxic conditions; assay type: cell-based
Topoisomerase II = target: T1, Topoisomerase II (Homo sapiens, UniProt P11388); assay: In vitro topoisomerase inhibition assay; assay type: biochemical; conditions: 200 nM
T1 construct: purchased TopoGEN, Inc
Protocol: Topoisomerase II inhibitory activity was measured using a Topoisomerase II Drug Screening Kit (TopoGEN, Inc.) per the manufacturer's protocol. Taragpremir-210 (200 nM) was added to 300 ng of DNA in 1× Complete Buffer (50 mM Tris-HCl, pH 8, 150 mM NaCl, 10 mM MgCl2, 0.5 mM dithiothreitol, 30 μg/mL BSA, and 2 mM ATP), followed by addition of 7.5 U of Topoisomerase II enzyme. The samples were incubated for 30 min at 37° C., and the reaction was stopped by the addition of 2 µL of 10% sodium dodecyl sulfate (SDS). Proteinase K (50 μg/mL) was then added and the solution was incubated for 15 min at 37° C. Topoisomers were separated on 1% agarose gels with or without 0.5 μg/mL ethidium bromide. Note, for gels containing ethidium bromide, the 1× TAE running buffer was also supplemented with 0.5 μg/mL ethidium bromide. Gels prepared without ethidium bromide were post-stained (0.5 μg/mL ethidium bromide). Both types of gels were destained in 1× TAE for 15 min, and the DNA products were visualized using a Bio-Rad Gel Doc XR+imaging system.

[10] = tested on: MDA-MB-231-GFP-Luc tumors; assay: TNBC mouse xenograft model, tumor burden; assay type: in vivo, NOD/SCID mice; conditions: 200 nM, cell pre-treatment or single injection 24 h post-implantation; 21 days
Protocol: NOD/SCID mice (B6.CB17-Prkdcscid/Sz, Jackson Laboratories) were housed in the Scripps Florida vivarium. All live animal experiments were approved by the Scripps Florida Institutional Animal Care and Use Committee. Two sets of experiments were completed: treatment of MDA-MB-231-GFP-luc cells prior to implantation and treatment of mice post-tumor implantation. For pre-treatment of tumor cells, MDA-MB-231-GFP-luc cells (5×10^6) were treated with or without Targapremir-210 (200 nM) or anti-miR-210 antagomir (500 nM) for 48 h pre-implantation. A 100 μL PBS/Matrigel (1:1; BD Biosciences) cell suspension was subcutaneously transplanted into mouse breast fat pads. Alternatively, mouse breast fat pads were injected with a 100 μL PBS/Matrigel (1:1) cell suspension (5×10^6MDA-MB-231-GFP-luc cells) followed by intraperitoneal (i.p) injection of Targapremir-210 (100 μL of 200 nM) or anti-miR-210 antagomir (100 μL of 500 nM) 24 h post-transplantation.
Tumor growth was monitored weekly post-implantation by i.p. injection of 200 μL D-luciferin (15 mg/mL) and imaging with an IVIS 200 system. Tumors were resected 21 days post-transplantation following euthanasia. Levels of mature miR-210, HIF-1a, and GPLDL1 RNAs were measured by RT-qPCR as described above.

miR-210 [11] = assay: RT-qPCR of resected tumors, miR-210; assay type: in vivo, NOD/SCID mice; conditions: compared to untreated tumors
Protocol: as §2
(§7) NOD/SCID mice (B6.CB17-Prkdcscid/Sz, Jackson Laboratories) were housed in the Scripps Florida vivarium. All live animal experiments were approved by the Scripps Florida Institutional Animal Care and Use Committee. Two sets of experiments were completed: treatment of MDA-MB-231-GFP-luc cells prior to implantation and treatment of mice post-tumor implantation. For pre-treatment of tumor cells, MDA-MB-231-GFP-luc cells (5×10^6) were treated with or without Targapremir-210 (200 nM) or anti-miR-210 antagomir (500 nM) for 48 h pre-implantation. […]
(§8) Tumor growth was monitored weekly post-implantation by i.p. injection of 200 μL D-luciferin (15 mg/mL) and imaging with an IVIS 200 system. […] Levels of mature miR-210, HIF-1a, and GPLDL1 RNAs were measured by RT-qPCR as described above.

HIF-1α mRNA [12] = assay: RT-qPCR of resected tumors, HIF-1α; assay type: in vivo, NOD/SCID mice; conditions: compared to untreated tumors
Protocol: as §2, §7, §8

GPD1L mRNA = assay: RT-qPCR of resected tumors, GPD1L; assay type: in vivo, NOD/SCID mice; conditions: compared to untreated tumors
Protocol: as §2, §7, §8

[13] = Tumor localization by fluorescent microscopy; assay type: in vivo, NOD/SCID mice; conditions: single i.p. injection
Protocol: Resected tumor samples were frozen using O.C.T. Compound (Tissue-Tek) over dry ice. Frozen tissues were sectioned by cryostat and transferred to microscope slides. Fluorescent microscopic analysis was carried out using a Leica DMI3000 B upright fluorescent microscope.

[14] = target: pre-miR-210 Dicer site, 5′ACU3′/3′UCA5′; conditions: 5′ACU3′/3′UCA5′ motif; reference 15; read-out: Kd, binding affinity for the pre-miR-210 Dicer site; cited from earlier work
[15] = tested on: RNA in which the Dicer site was ablated; conditions: reference 15; cited from earlier work
[16] = 200 nM, hypoxic MDA-MB-231 cells

T1 sequence (P11388 whole entry): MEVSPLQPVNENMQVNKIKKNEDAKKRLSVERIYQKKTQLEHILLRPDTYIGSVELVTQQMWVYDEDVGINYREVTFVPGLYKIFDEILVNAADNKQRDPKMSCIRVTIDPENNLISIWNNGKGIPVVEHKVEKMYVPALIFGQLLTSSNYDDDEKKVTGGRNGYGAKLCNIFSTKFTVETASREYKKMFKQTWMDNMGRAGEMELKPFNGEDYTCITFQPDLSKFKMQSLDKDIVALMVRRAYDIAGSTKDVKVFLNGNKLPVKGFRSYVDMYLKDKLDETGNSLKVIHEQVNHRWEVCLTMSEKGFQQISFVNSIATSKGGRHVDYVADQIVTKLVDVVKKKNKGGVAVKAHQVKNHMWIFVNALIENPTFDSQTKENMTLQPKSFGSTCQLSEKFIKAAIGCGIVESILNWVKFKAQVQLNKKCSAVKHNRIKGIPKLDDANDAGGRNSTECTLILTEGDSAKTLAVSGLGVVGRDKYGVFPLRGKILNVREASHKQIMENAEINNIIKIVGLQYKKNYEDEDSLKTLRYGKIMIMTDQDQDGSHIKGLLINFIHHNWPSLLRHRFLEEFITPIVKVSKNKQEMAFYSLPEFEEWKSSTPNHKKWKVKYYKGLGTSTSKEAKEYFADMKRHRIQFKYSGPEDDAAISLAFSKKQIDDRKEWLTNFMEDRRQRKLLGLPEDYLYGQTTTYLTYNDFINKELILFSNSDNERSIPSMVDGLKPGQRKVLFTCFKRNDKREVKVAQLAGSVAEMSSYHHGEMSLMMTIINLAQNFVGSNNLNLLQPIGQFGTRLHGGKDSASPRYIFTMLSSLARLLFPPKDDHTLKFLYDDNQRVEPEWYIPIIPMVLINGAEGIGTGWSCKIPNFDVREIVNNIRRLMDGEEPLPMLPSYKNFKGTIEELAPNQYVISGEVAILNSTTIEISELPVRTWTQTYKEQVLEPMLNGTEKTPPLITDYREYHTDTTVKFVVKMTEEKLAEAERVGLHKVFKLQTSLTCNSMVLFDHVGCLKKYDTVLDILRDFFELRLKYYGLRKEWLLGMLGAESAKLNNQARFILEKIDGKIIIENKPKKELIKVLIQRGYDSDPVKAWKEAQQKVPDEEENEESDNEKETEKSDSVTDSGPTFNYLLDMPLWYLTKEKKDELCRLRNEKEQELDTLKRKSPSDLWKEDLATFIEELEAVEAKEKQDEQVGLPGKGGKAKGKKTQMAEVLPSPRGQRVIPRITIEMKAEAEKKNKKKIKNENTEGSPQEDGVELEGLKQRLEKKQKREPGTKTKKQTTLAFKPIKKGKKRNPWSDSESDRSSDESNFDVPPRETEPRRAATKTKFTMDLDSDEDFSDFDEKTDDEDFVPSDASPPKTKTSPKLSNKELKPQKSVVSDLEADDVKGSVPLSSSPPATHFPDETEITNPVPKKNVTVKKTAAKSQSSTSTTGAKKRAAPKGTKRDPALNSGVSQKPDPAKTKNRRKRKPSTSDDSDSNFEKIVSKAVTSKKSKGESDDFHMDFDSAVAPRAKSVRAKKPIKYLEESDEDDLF

- binding to in vitro transcribed pre-miR-210 (pre-miR-210 RNA): binds similarly
- IC50 (miR-210 [2]; Homo sapiens, MDA-MB-231 cells, hypoxic conditions, RT-qPCR, read-out: IC50, decrease of mature miR-210 levels): ~200 nM
- IC50 [6]: 200 nM
- inhibition of topoisomerase enzymatic activity (Topoisomerase II): did not inhibit topoisomerase activity
Compound: CN1CCN(c2ccc3nc(-c4ccc5[nH]c(-c6cccc(OCCCC(=O)NCCCN=[N+]=[N-])c6)nc5c4)[nH]c3c2)CC1 [Targapremir-210]
- inhibition of Dicer processing of pre-miR-210 in vitro [1]: inhibited pre-miR-210 processing at nanomolar concentrations
- increase in pre-miR-210 levels (miR-210 [2]; [16]): ~2.6 fold
- increase in pri-miR-210 levels (miR-210 [2]; [16]): ~3 fold
- reduction of HIF-1α mRNA levels (HIF-1α mRNA [3]): ~75%
- increase of GPD1L levels (GPD1L): ~4 fold
- apoptosis (MDA-MB-231 cells; hypoxic conditions): induced apoptosis
- apoptosis with overexpression of pre-miR-210 (MDA-MB-231 cells; hypoxic conditions, pre-miR-210 overexpressed): allowed cells to escape apoptosis
- apoptosis (MDA-MB-231 cells; normoxia): did not induce apoptosis
- effect on levels of hypoxia-associated miRNAs [4]: affected only levels of mature miR-210
- effect on expression levels of miRNAs with predicted compound binding sites [5]: only affected levels of miR-210; also recorded: no statistically significant effect
- highest relative fold pull-down among hypoxia-associated miRNAs other than miR-210 ([7]; Chem-CLIP probe pull-down, three of 28 enriched (miR-181a, miR-205, miR-206)): ~2.8 fold
- abundance of other hypoxia-associated miRNAs as a function of Targapremir-210 concentration (C-Chem-CLIP) ([7]; MDA-MB-231 cells): did not change
- miRNAs with RNA isoform bound in cells (Chem-CLIP) [8]: only four of the miRNAs are bound
- effect on miR-96 and miR-210 levels [9]: only affects miR-210
- tumor growth (luciferase signal intensity, mass of the resected tumor) [10]: significantly decreased tumor growth
- reduction of miR-210 levels in resected tumors (miR-210 [11]): ~90%
- reduction of HIF-1α levels in resected tumors (HIF-1α mRNA [12]): ~75%
- GPD1L levels in resected tumors (GPD1L mRNA): doubled
- compound localization in tumor [13]: able to reach the tumor and sustain for the entire 21-day period
- Kd [14]: ~200 nM
- binding to RNA in which the Dicer site was ablated [15]: did not bind

Compound: Targaprimir-96 [reference compound]
- effect on miR-96 and miR-210 levels [9]: only affects miR-96
